Test results taken from ChEMBL document CHEMBL4813981, “Synthesis and in vitro antibacterial activity of new aminothiazole-oximepiperidone cephalosporins” (2021).
≈ marks a conversion by molar mass, not a printed value.

Legend:
Escherichia coli [1] = assay: Antibacterial activity against Escherichia coli ATCC 35218 assessed as reduction in bacterial growth; format: functional
Klebsiella pneumoniae [2] = assay: Antibacterial activity against Klebsiella pneumoniae ATCC 700603 assessed as reduction in bacterial growth; format: functional
Klebsiella pneumoniae [3] = assay: Antibacterial activity against Multidrug resistant Klebsiella pneumoniae KR 15-1 assessed as reduction in bacterial growth; format: functional
Acinetobacter baumannii [4] = assay: Antibacterial activity against Multidrug resistant Acinetobacter baumannii AR 15-3 assessed as reduction in bacterial growth; format: functional
Escherichia coli [5] = assay: Antibacterial activity against Escherichia coli NCTC 13353 assessed as reduction in bacterial growth in the presence of Avibactam; format: functional
Klebsiella pneumoniae [6] = assay: Antibacterial activity against Klebsiella pneumoniae ATCC BAA-1705 assessed as reduction in bacterial growth in the presence of Avibactam; format: functional
Klebsiella pneumoniae [7] = assay: Antibacterial activity against Multidrug resistant Klebsiella pneumoniae KR 15-2 assessed as reduction in bacterial growth in the presence of Avibactam; format: functional
Acinetobacter baumannii [8] = assay: Antibacterial activity against Multidrug resistant Acinetobacter baumannii AR 15-3 assessed as reduction in bacterial growth in the presence of Avibactam; format: functional
Klebsiella pneumoniae [9] = assay: Antibacterial activity against ESBLs negative Carbapenem-sensitive Klebsiella pneumoniae 17-19 assessed as reduction in bacterial growth; format: functional
Enterobacter cloacae [10] = assay: Antibacterial activity against Enterobacter cloacae 17-6 assessed as reduction in bacterial growth; format: functional
Pseudomonas aeruginosa [11] = assay: Antibacterial activity against Carbapenem- sensitive Pseudomonas aeruginosa 17-9 assessed as reduction in bacterial growth; format: functional
Acinetobacter baumannii [12] = assay: Antibacterial activity against Carbapenem- resistant Acinetobacter baumannii 17-10 assessed as reduction in bacterial growth in the presence of Avibactam; format: functional
Acinetobacter baumannii [13] = assay: Antibacterial activity against Carbapenem- resistant Acinetobacter baumannii 17-13 assessed as reduction in bacterial growth in the presence of Avibactam; format: functional
Klebsiella pneumoniae [14] = assay: Antibacterial activity against Carbapenem- resistant Klebsiella pneumoniae KR 15-6 assessed as reduction in bacterial growth in the presence of Avibactam; format: functional
Pseudomonas aeruginosa [15] = assay: Antibacterial activity against Carbapenem- resistant Pseudomonas aeruginosa 17-1 assessed as reduction in bacterial growth in the presence of Avibactam; format: functional
Pseudomonas aeruginosa [16] = assay: Antibacterial activity against Carbapenem- resistant Pseudomonas aeruginosa 17-8 assessed as reduction in bacterial growth in the presence of Avibactam; format: functional
Klebsiella pneumoniae [17] = assay: Antibacterial activity against ESBLs positive Carbapenem-sensitive Klebsiella pneumoniae 17-4 assessed as reduction in bacterial growth in the presence of Avibactam; format: functional
Klebsiella pneumoniae [18] = assay: Antibacterial activity against ESBLs negative Carbapenem-sensitive Klebsiella pneumoniae 17-18 assessed as reduction in bacterial growth in the presence of Avibactam; format: functional
Escherichia coli [19] = assay: Antibacterial activity against ESBLs positive Carbapenem-sensitive Escherichia coli 17-11 assessed as reduction in bacterial growth in the presence of Avibactam; format: functional
Escherichia coli [20] = assay: Antibacterial activity against ESBLs positive Carbapenem-sensitive Escherichia coli 17-18 assessed as reduction in bacterial growth in the presence of Avibactam; format: functional
Escherichia coli [21] = assay: Antibacterial activity against ESBLs positive Carbapenem-sensitive Escherichia coli 17-22 assessed as reduction in bacterial growth in the presence of Avibactam; format: functional
Escherichia coli [22] = assay: Antibacterial activity against ESBLs negative Carbapenem-sensitive Escherichia coli 17-1 assessed as reduction in bacterial growth in the presence of Avibactam; format: functional
Enterobacter cloacae [23] = assay: Antibacterial activity against Enterobacter cloacae 17-5 assessed as reduction in bacterial growth in the presence of Avibactam; format: functional
Enterobacter cloacae [24] = assay: Antibacterial activity against Enterobacter cloacae 17-7 assessed as reduction in bacterial growth in the presence of Avibactam; format: functional
Klebsiella aerogenes [25] = assay: Antibacterial activity against Enterobacter aerogenes 15-5 assessed as reduction in bacterial growth in the presence of Avibactam; format: functional
Pseudomonas aeruginosa [26] = assay: Antibacterial activity against Carbapenem- sensitive Pseudomonas aeruginosa 17-22 assessed as reduction in bacterial growth in the presence of Avibactam; format: functional
Pseudomonas aeruginosa [27] = assay: Antibacterial activity against Carbapenem- sensitive Pseudomonas aeruginosa 17-24 assessed as reduction in bacterial growth in the presence of Avibactam; format: functional
Klebsiella pneumoniae [28] = assay: Bactericidal activity against ESBLs positive Carbapenem-sensitive Klebsiella pneumoniae 17-2 assessed as reduction in bacterial growth; format: functional
Pseudomonas aeruginosa [29] = assay: Bactericidal activity against carbapenem-sensitive Pseudomonas aeruginosa 17-7 assessed as reduction in bacterial growth; format: functional
Pseudomonas aeruginosa [30] = assay: Bactericidal activity against carbapenem-sensitive Pseudomonas aeruginosa 17-26 assessed as reduction in bacterial growth; format: functional
Escherichia coli [31] = assay: Bactericidal activity against Escherichia coli NCTC 13353 assessed as reduction in bacterial growth; format: functional
Acinetobacter baumannii [32] = assay: Bactericidal activity against Acinetobacter baumannii NCTC 13304 assessed as reduction in bacterial growth; format: functional
Acinetobacter baumannii [33] = assay: Bactericidal activity against Carbapenem- resistant Acinetobacter baumannii 17-3 assessed as reduction in bacterial growth in the presence of avibactam; format: functional
Acinetobacter baumannii [34] = assay: Bactericidal activity against Carbapenem- resistant Acinetobacter baumannii 17-5 assessed as reduction in bacterial growth in the presence of avibactam; format: functional
Acinetobacter baumannii [35] = assay: Bactericidal activity against Carbapenem- resistant Acinetobacter baumannii 17-6 assessed as reduction in bacterial growth in the presence of avibactam; format: functional
Pseudomonas aeruginosa [36] = assay: Bactericidal activity against Carbapenem- resistant Pseudomonas aeruginosa 17-5 assessed as reduction in bacterial growth in the presence of avibactam; format: functional
Klebsiella pneumoniae [37] = assay: Bactericidal activity against ESBLs positive Carbapenem-sensitive Klebsiella pneumoniae 17-6 assessed as reduction in bacterial growth in the presence of avibactam; format: functional
Klebsiella pneumoniae [38] = assay: Bactericidal activity against ESBLs negative Carbapenem-sensitive Klebsiella pneumoniae 17-16 assessed as reduction in bacterial growth in the presence of avibactam; format: functional
Escherichia coli [39] = assay: Bactericidal activity against ESBLs negative carbapenem-sensitive Escherichia coli 17-7 assessed as reduction in bacterial growth in the presence of avibactam; format: functional
Escherichia coli [40] = assay: Bactericidal activity against ESBLs positive carbapenem-sensitive Escherichia coli 17-18 assessed as reduction in bacterial growth in the presence of avibactam; format: functional
Klebsiella aerogenes [41] = assay: Bactericidal activity against Enterobacter aerogenes 17-3 assessed as reduction in bacterial growth in the presence of avibactam; format: functional
Pseudomonas aeruginosa [42] = assay: Bactericidal activity against carbapenem-sensitive Pseudomonas aeruginosa 17-10 assessed as reduction in bacterial growth in the presence of avibactam; format: functional
Pseudomonas aeruginosa [43] = assay: Bactericidal activity against carbapenem-sensitive Pseudomonas aeruginosa 17-26 assessed as reduction in bacterial growth in the presence of avibactam; format: functional
Acinetobacter baumannii [44] = assay: Antibacterial activity against Carbapenem- resistant Acinetobacter baumannii 17-2 assessed as reduction in bacterial growth
Klebsiella pneumoniae [45] = assay: Antibacterial activity against Carbapenem- resistant Klebsiella pneumoniae KR 15-4 assessed as reduction in bacterial growth
Escherichia coli [46] = assay: Antibacterial activity against ESBLs negative Carbapenem--sensitive Escherichia coli 17-20 assessed as reduction in bacterial growth
Klebsiella pneumoniae [47] = assay: Antibacterial activity against ESBLs positive Carbapenem-sensitive Klebsiella pneumoniae 17-12 assessed as reduction in bacterial growth

SMILES: Nc1nc(/C(=N/OCc2cc(=O)c(O)cn2O)C(=O)N[C@@H]2C(=O)N3C(C(=O)O)=CCS[C@H]23)cs1
- MIC (Escherichia coli [1]): 0.5 µg/mL (≈ 0.983 µM)
- MIC (Klebsiella pneumoniae [2]): 64 µg/mL (≈ 126 µM)
- MIC (Klebsiella pneumoniae [3]): > 64 µg/mL
- MIC (Acinetobacter baumannii [4]): > 64 µg/mL
- MIC (Escherichia coli [5]): 0.5 µg/mL
- MIC (Klebsiella pneumoniae [6]): 2 µg/mL
- MIC (Klebsiella pneumoniae [7]): 1 µg/mL
- MIC (Acinetobacter baumannii [8]): 8 µg/mL
- MIC (Klebsiella pneumoniae [9]): ≤ 0.03 µg/mL
- MIC (Enterobacter cloacae [10]): 2 µg/mL (≈ 3.93 µM)
- MIC (Pseudomonas aeruginosa [11]): 4 µg/mL (≈ 7.87 µM)
- MIC (Acinetobacter baumannii [12]): 16 µg/mL
- MIC (Acinetobacter baumannii [13]): 2 µg/mL
- MIC (Klebsiella pneumoniae [14]): 0.5 µg/mL
- MIC (Pseudomonas aeruginosa [15]): 16 µg/mL
- MIC (Pseudomonas aeruginosa [16]): 16 µg/mL
- MIC (Klebsiella pneumoniae [17]): 2 µg/mL
- MIC (Klebsiella pneumoniae [18]): 0.06 µg/mL
- MIC (Escherichia coli [19]): 4 µg/mL
- MIC (Escherichia coli [20]): 0.5 µg/mL
- MIC (Escherichia coli [21]): 0.5 µg/mL
- MIC (Escherichia coli [22]): 0.25 µg/mL
- MIC (Enterobacter cloacae [23]): 4 µg/mL
- MIC (Enterobacter cloacae [24]): 2 µg/mL
- MIC (Klebsiella aerogenes [25]): 1 µg/mL
- MIC (Pseudomonas aeruginosa [26]): 1 µg/mL
- MIC (Pseudomonas aeruginosa [27]): 4 µg/mL
- MBC (Klebsiella pneumoniae [28]): 2 µg/mL (≈ 3.93 µM)
- MBC (Pseudomonas aeruginosa [29]): 1 µg/mL (≈ 1.97 µM)
- MBC (Pseudomonas aeruginosa [30]): > 16 µg/mL
- MBC (Escherichia coli [31]): > 64 µg/mL
- MBC (Acinetobacter baumannii [32]): > 64 µg/mL
- MBC (Acinetobacter baumannii [33]): 16 µg/mL
- MBC (Acinetobacter baumannii [34]): 16 µg/mL
- MBC (Acinetobacter baumannii [35]): 16 µg/mL
- MBC (Pseudomonas aeruginosa [36]): 32 µg/mL
- MBC (Klebsiella pneumoniae [37]): 0.5 µg/mL
- MBC (Klebsiella pneumoniae [38]): 0.06 µg/mL
- MBC (Escherichia coli [39]): 1 µg/mL
- MBC (Escherichia coli [40]): 1 µg/mL
- MBC (Klebsiella aerogenes [41]): 0.5 µg/mL
- MBC (Pseudomonas aeruginosa [42]): 4 µg/mL
- MBC (Pseudomonas aeruginosa [43]): 4 µg/mL
- MIC (Acinetobacter baumannii [44]): > 64 µg/mL
- MIC (Klebsiella pneumoniae [45]): > 64 µg/mL
- MIC (Escherichia coli [46]): > 2 µg/mL
- MIC (Klebsiella pneumoniae [47]): 2 µg/mL (≈ 3.93 µM)

SMILES: CC(C)(O/N=C(\C(=O)N[C@@H]1C(=O)N2C(C(=O)[O-])=C(C[n+]3ccccc3)CS[C@H]12)c1csc(N)n1)C(=O)O [CEFTAZIDIME]
- MIC (Escherichia coli [1]): 0.06 µg/mL (≈ 0.11 µM)
- MIC (Klebsiella pneumoniae [2]): 32 µg/mL (≈ 58.5 µM)
- MIC (Klebsiella pneumoniae [3]): > 64 µg/mL
- MIC (Acinetobacter baumannii [4]): > 64 µg/mL
- MIC (Escherichia coli [5]): 0.5 µg/mL
- MIC (Klebsiella pneumoniae [6]): 4 µg/mL
- MIC (Klebsiella pneumoniae [7]): 2 µg/mL
- MIC (Acinetobacter baumannii [8]): 16 µg/mL
- MIC (Acinetobacter baumannii [12]): 4 µg/mL
- MIC (Acinetobacter baumannii [13]): 2 µg/mL
- MIC (Klebsiella pneumoniae [14]): 1 µg/mL
- MIC (Pseudomonas aeruginosa [15]): 8 µg/mL
- MIC (Pseudomonas aeruginosa [16]): 16 µg/mL
- MIC (Klebsiella pneumoniae [17]): 4 µg/mL
- MIC (Klebsiella pneumoniae [18]): 0.125 µg/mL
- MIC (Escherichia coli [19]): 0.5 µg/mL
- MIC (Escherichia coli [20]): 0.5 µg/mL
- MIC (Escherichia coli [21]): 1 µg/mL
- MIC (Escherichia coli [22]): 0.5 µg/mL
- MIC (Enterobacter cloacae [23]): 1 µg/mL
- MIC (Enterobacter cloacae [24]): 2 µg/mL
- MIC (Klebsiella aerogenes [25]): 0.5 µg/mL
- MIC (Pseudomonas aeruginosa [26]): 0.5 µg/mL
- MIC (Pseudomonas aeruginosa [27]): 2 µg/mL
- MBC (Klebsiella pneumoniae [28]): 4 µg/mL (≈ 7.32 µM)
- MBC (Pseudomonas aeruginosa [29]): 1 µg/mL (≈ 1.83 µM)
- MBC (Pseudomonas aeruginosa [30]): 8 µg/mL (≈ 14.6 µM)
- MBC (Escherichia coli [31]): > 64 µg/mL
- MBC (Acinetobacter baumannii [32]): > 64 µg/mL
- MBC (Acinetobacter baumannii [33]): 8 µg/mL
- MBC (Acinetobacter baumannii [34]): 16 µg/mL
- MBC (Acinetobacter baumannii [35]): 16 µg/mL
- MBC (Pseudomonas aeruginosa [36]): > 16 µg/mL
- MBC (Klebsiella pneumoniae [37]): > 8 µg/mL
- MBC (Klebsiella pneumoniae [38]): 0.25 µg/mL
- MBC (Escherichia coli [39]): 0.125 µg/mL
- MBC (Escherichia coli [40]): 0.5 µg/mL
- MBC (Klebsiella aerogenes [41]): 0.25 µg/mL
- MBC (Pseudomonas aeruginosa [42]): 0.5 µg/mL
- MBC (Pseudomonas aeruginosa [43]): 2 µg/mL
- MIC (Acinetobacter baumannii [44]): > 64 µg/mL
- MIC (Klebsiella pneumoniae [45]): > 64 µg/mL
- MIC (Escherichia coli [46]): > 2 µg/mL
- MIC (Klebsiella pneumoniae [47]): 4 µg/mL (≈ 7.32 µM)

SMILES: C[C@@H](O)[C@H]1C(=O)N2C(C(=O)O)=C(S[C@@H]3CN[C@H](C(=O)N(C)C)C3)[C@H](C)[C@H]12 [MEROPENEM]
- MIC (Klebsiella pneumoniae [9]): < 0.03 µg/mL
- MIC (Enterobacter cloacae [10]): < 0.03 µg/mL
- MIC (Pseudomonas aeruginosa [11]): 0.25 µg/mL (≈ 0.652 µM)
